{"source": "patent US4499104A", "about": "“Imidazole compound, the process for its preparation, and therapeutically active compositions containing same” (priority 1976, dated 1985)", "key": {"[1]": {"assay": "Pulminary edema by carrageen (Sancilio method, pleural exudate)", "assay_type": "in vivo, Wistar-Roux-Ocefa rats", "description": "Using the Sancilio method (Sancilio F. L., J. Pharmacol. Exptl. Therap., 168, 199 (1969); Sancilio L. F. Rodrigues R., Proc. Soc. Exptl. Biol. Med., 123, 707 (1969); Sancilio L. F. Lawrence R., Proc. Soc. Exptl. Biol. Med., 127, 597 (1968), pulminary irritation was induced in Wistar-Roux-Ocefa rats and the capacity of chlorophenazole and other drugs to prevent production of pleural exudate was measured. 5 ml of a 0.025% carrageen solution and 0.075% Evans blue were injected into the pleurea.\nThe action of chlorophenazole, mepyrazole and phenylbutazone were evaluated from the quantity of exudate present in the pleural cavity after 1 and 6 hours."}, "[2]": {"assay": "Edema by carrageen (rat paw), antiedematous activity", "assay_type": "in vivo, Rats of the Wistar-Roux-Ocefa stock", "description": "A 1% physiological solution of carrageen was used. Rats of the Wistar-Roux-Ocefa stock having a weight of 150±30 g were used. The drugs were suspended in 1% carboxymethylcellulose or dissolved in distilled water and administered orally one hour before the inflammatory agent in a volume of 0.5 ml/100 g. The carrageen was adminstered subcutaneously in the subplanetary region of one of the rear paws. The volume of the paw was measured platysmagraphically initially and then after 1.5 hour, 3 hours and 5 hours after administering the carrageen. One inflammation unit was defined as the displacement of 0.01 ml of Hg.\nThe edema was evaluated as the difference in volume of the rear paw before and after the carrageen. The DE 50 was calculated by the probits method and graphically. The comparison drugs used were phenylbutazone and niflumic acid."}, "Rat": {"tested_on": "Rat", "assay": "Acute toxicity, rat"}, "[3]": {"assay": "Antipyretic activity, hyperthermia by beer yeast in rat", "assay_type": "in vivo, Wistar stock", "conditions": "oral, 1/10 of DL50; chlorophenazole 50 mg/kg, phenylbutazone 35 mg/kg", "description": "It was then measured in the rat using 10 animals of Wistar stock per group weighing 170-200 g, made hyperthermal by subcutaneous injection of a 10% beer yeast suspension in distilled water.\nThe compounds awere administered orally 60 minutes after the induction of fever in doses equal to 1/10 of the DL50. Readings were taken at 30 minute intervals for 5 hours."}, "[4]": {"assay": "Antipyretic activity, hyperthermia by lysate of Neisseria perflava in rabbit", "assay_type": "in vivo, male albino rabbits", "conditions": "oral", "description": "This was first studied in the rabbit, using 6 male albino rabbits of 3-3.5 kg per group, made hyperthermal by i.v. injection of 0.5 ml/kg of a lysate of Neisseria perflava. The rectal temperature was determined by thermocouples every 60 minutes for 3 hours. The difference in temperature was calculated between maximum elevation and base temperature at each time. The drug was administered orally."}, "human": {"tested_on": "human", "assay": "Human therapy", "assay_type": "in vivo"}, "in vivo": {"assay": "in vivo", "conditions": "rat"}}, "note": "Entries after “also recorded” stand apart in the source; their conditions may differ.", "data": [{"compound": "Cc1[nH]cnc1-c1ccc(Cl)cc1", "note": "[Chlorophenazole, 4-(p-chlorophenyl)-5-methylimidazole]", "values": [{"measurement": "ml of exudate", "setting": "[1]; 30 mg/Kg, pleural cavity", "value": 3.11, "unit": "mL"}, {"measurement": "activity on pleural exudate", "setting": "[1]; exudate after 1 and 6 hours", "value": "significantly active"}, {"measurement": "Δ Volume of the inflamed paw", "setting": "[2]; 10 mg/kg oral, 1.5 hours", "value": 15, "unit": "UPI"}, {"measurement": "Δ Volume of the inflamed paw", "setting": "[2]; 10 mg/kg oral, 3 hours", "value": 35, "unit": "UPI"}, {"measurement": "Δ Volume of the inflamed paw", "setting": "[2]; 10 mg/kg oral, 5 hours", "value": 58, "unit": "UPI"}, {"measurement": "Δ Volume of the inflamed paw", "setting": "[2]; 20 mg/kg oral, 1.5 hours", "value": 15, "unit": "UPI"}, {"measurement": "Δ Volume of the inflamed paw", "setting": "[2]; 20 mg/kg oral, 3 hours", "value": 29, "unit": "UPI"}, {"measurement": "Δ Volume of the inflamed paw", "setting": "[2]; 20 mg/kg oral, 5 hours", "value": 44, "unit": "UPI"}, {"measurement": "Δ Volume of the inflamed paw", "setting": "[2]; 40 mg/kg oral, 1.5 hours", "value": 15, "unit": "UPI"}, {"measurement": "Δ Volume of the inflamed paw", "setting": "[2]; 40 mg/kg oral, 3 hours", "value": 23, "unit": "UPI"}, {"measurement": "Δ Volume of the inflamed paw", "setting": "[2]; 40 mg/kg oral, 5 hours", "value": 42, "unit": "UPI"}, {"measurement": "IT (DL50/DE50)", "setting": "[2]; DL50/DE50, os", "value": 73.60}, {"measurement": "ED50", "setting": "[2]; Rattus norvegicus, po, os, probits method and graphically, read-out: DE50 (the source's name)", "value": 7, "unit": "mg/kg"}, {"measurement": "antiedematous activity relative to comparison drugs", "setting": "[2]; oral", "value": "more active than phenylbutazone; also recorded: only slightly more active than niflumic acid"}, {"measurement": "antiinflamatory analgesic activity, overall comparison", "setting": "[2]; summary of the tests", "value": "decidedly better than phenylbutazone, niflumic acid, clonixine or mepyrazole"}, {"measurement": "symptoms preceding death", "setting": "Rat; rat and mouse, acute toxicity", "value": "reduction in spontaneous motility, sedation, hypotherma, paralysis"}, {"measurement": "acute toxicity values and therapeutic index relative to phenylbutazone", "setting": "Rat; summary", "value": "well in excess of those for phenylbutazone"}, {"measurement": "antipyretic activity relative to phenylbutazone", "setting": "[3]", "value": "superiority over phenylbutazone"}, {"measurement": "protection from temperature increase", "setting": "[4]", "value": "clearly protected the animals from temperature increase"}, {"measurement": "pharmacological results in human therapy", "setting": "human", "value": "fully confirmed in human therapy"}, {"measurement": "LD50", "setting": "in vivo; ip", "value": 135, "unit": "mg/kg"}, {"measurement": "LD50", "setting": "in vivo; po", "value": 515, "unit": "mg/kg"}]}]}
